Measurements published in patent US5700469A, “HIV-1 core protein fragments” (Medical Research Council, priority 1990, dated 1997).
Like-named read-outs stand apart in the source and are kept apart here. Where no end group is shown, it is not given here.

Columns and labels:
[1] = system: human leucocyte antigen (HLA) class I molecule; assay: CTL assay: lysis of 51-chromium labelled, HLA-matched B lymphoblastoid target cells sensitized with peptide; format: cell-based; conditions: for HLA restriction of the peptide (through one or more of the antigens): HLA restrictions not yet fully worked out
Procedure: Peptides in accordance with the invention can also be used for diagnostic purposes. […] Briefly, fresh peripheral blood mononuclear cells (or lymphocytes obtained from biopsy material) are prepared and added at ratios of 50:1, 25:1 and 10:1 to 10^4 51 -chromium labelled B lymphoblastoid cells matched for the relevant HLA molecules. The HLA type of patient is determined in known manner by tissue typing, and B lymphoblastoid cells obtained from a donor of known HLA type (again determined in known manner by tissue typing) and transformed with Epstein Barr using known techniques. A peptide in accordance with the invention, which interacts with the relevant HLA molecule, is also added to the cells in a concentration of 10 to 100 u molar. After 4 hours incubation the supernatant is removed and the released ^51 -chromium measured. The ^51 -chromium released is compared to that released by incubation of labelled cells in detergent, which gives a maximum value, and released by labelled cells incubated in medium alone, which gives a minimum value. If lysis (defined by ^51 -chromium released of at least two times the minimum value) is observed it means that there are cytotoxic T lymphocytes in the patients' mononuclear cells and these are likely to be indicative of infection with HIV.

[2] = system: human leucocyte antigen (HLA) class I molecule; conditions: disclosed in prior application EP 0346022; cited from earlier work

Row | Substance | HLA restriction of the peptide (through one or more of the antigens) [1] | other results
1 | CVGGPGHKARVL [p24-23, NH2 -cysteine-valine-glycine-glycine-proline-glycine-histidine-lysine-alanine- arginine-valine-leucine-COOH] | LA-A1 or B7 or B8 | 
2 | DLNTMLNTVGGHQAAC [p24-6, NH2 -aspartic acid-leucine-asparagine-threonine-methionine-leucine-asparagine-threonine- valine-glycine-glycine -histidine-glutamine-alanine-alanine-cysteine-COOH] | HLA-A3 or A29 or B44 or B14 | 
3 | LEEMMTACQGVGGPGY [p24-22, NH2 -leucine-glutamic acid-glutamic acid-methionine-methionine-threonine-alanine-cysteine-glutamine-glycine -valine-glycine-glycine-proline-glycine-tyrosine-COOH] | HLA-A3 or A29 or B44 or B14 | 
4 | NH2 -lysine-arginine-tryptophan-isoleucine-isoleucine-leucine-glycine-leucine- asparagine-lysine-isoleucine-valine-arginine-methionine-tyrosine -cysteine-COOH [p24-14] |  | HLA class I molecule with which the peptide interacts specifically [2]: HLA B27
5 | VHQAISPRTLNAWVKC [p24-2, NH2 -valine-histidine-glutamine-alanine-isoleucine-serine-proline-arginine-threonine-leucine-asparagine-alanine -tryptophan-valine-lysine-cysteine-COOH] | HLA-A23 or A30 or B8 | 
6 | VQNANPDCKTILKALY [p24-20, NH2 -valine-glutamine-asparagine-alanine-asparagine-proline-aspartic acid-cysteine-lysine-threonine-isoleucine-leucine-lysine-alanine-leucine-tyrosine-COOH] |  | HLA class I molecule with which the peptide interacts specifically [1]: HLA B8; recognition of the peptide by a seropositive donor ([1]; seropositive donor, HLA type as printed): recognised by a seropositive donor of the HLA type HLA-A3, 29B44, 14
